Measurements: the supplement of paper PMC10307832

What was measured:
Test in all cases: relative viability (nuclei count vs DMSO), 5 days (fraction); higher = more cells survive
ABC-1 = system: ABC-1
How it was run: (§1)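 Medians of duplicate plates are given as relative viability. That measure is the nuclei count in treated wells divided by the count in vehicle wells. Counts were taken on 4× images of lung cancer cell lines in 1536-well plates, 5 days after pin-tool dosing the day after seeding with one drug alone or a fixed anchor-drug dose plus five library-drug doses (not always all listed) in √10 steps.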

COR-L23 = system: COR-L23
How it was run: as §1

ChaGo-K-1 = system: ChaGo-K-1
How it was run: as §1

EPLC-272H = system: EPLC-272H
How it was run: as §1

HCC-15 = system: HCC-15
How it was run: as §1

HCC-366 = system: HCC-366
How it was run: as §1

HCC-44 = system: HCC-44
How it was run: as §1

HCC-827 = system: HCC-827
How it was run: as §1

LCLC-103H = system: LCLC-103H
How it was run: as §1

NCI-H1355 = system: NCI-H1355
How it was run: as §1

NCI-H1734 = system: NCI-H1734
How it was run: as §1

NCI-H1793 = system: NCI-H1793
How it was run: as §1

NCI-H1944 = system: NCI-H1944
How it was run: as §1

NCI-H2009 = system: NCI-H2009
How it was run: as §1

NCI-H2023 = system: NCI-H2023
How it was run: as §1

NCI-H2085 = system: NCI-H2085
How it was run: as §1

NCI-H2228 = system: NCI-H2228
How it was run: as §1

NCI-H2347 = system: NCI-H2347
How it was run: as §1

NCI-H2405 = system: NCI-H2405
How it was run: as §1

NCI-H3122 = system: NCI-H3122
How it was run: as §1

PC-14 = system: PC-14
How it was run: as §1

SW 1573 = system: SW 1573
How it was run: as §1

CCNC(=O)c1noc(-c2cc(C(C)C)c(O)cc2O)c1-c1ccc(CN2CCOCC2)cc1 [Luminespib] + COc1cccc2cc(-c3nc([C@H]4CC[C@H](C(=O)O)CC4)n4ncnc(N)c34)[nH]c12 [OSI-027] (partner 0.5 µM)
relative viability (ABC-1; first compound 0.002 µM): 0.532
relative viability (ABC-1; first compound 0.006325 µM): 0.476
relative viability (ABC-1; first compound 0.02 µM): 0.312
relative viability (ABC-1; first compound 0.06325 µM): 0.195
relative viability (ABC-1; first compound 0.2 µM): 0.186
relative viability (COR-L23; first compound 0.002 µM): 0.925
relative viability (COR-L23; first compound 0.006325 µM): 0.655
relative viability (COR-L23; first compound 0.02 µM): 0.508
relative viability (COR-L23; first compound 0.06325 µM): 0.079
relative viability (COR-L23; first compound 0.2 µM): 0.0776
relative viability (ChaGo-K-1; first compound 0.002 µM): 0.562
relative viability (ChaGo-K-1; first compound 0.006325 µM): 0.612
relative viability (ChaGo-K-1; first compound 0.02 µM): 0.525
relative viability (ChaGo-K-1; first compound 0.06325 µM): 0.199
relative viability (ChaGo-K-1; first compound 0.2 µM): 0.161
relative viability (EPLC-272H; first compound 0.002 µM): 0.261
relative viability (EPLC-272H; first compound 0.006325 µM): 0.26
relative viability (EPLC-272H; first compound 0.06325 µM): 0.27
relative viability (EPLC-272H; first compound 0.2 µM): 0.122
relative viability (HCC-15; first compound 0.002 µM): 0.686
relative viability (HCC-15; first compound 0.006325 µM): 0.644
relative viability (HCC-15; first compound 0.02 µM): 0.556
relative viability (HCC-15; first compound 0.06325 µM): 0.0983
relative viability (HCC-15; first compound 0.2 µM): 0.0973
relative viability (HCC-366; first compound 0.002 µM): 1.11
relative viability (HCC-366; first compound 0.006325 µM): 0.832
relative viability (HCC-366; first compound 0.02 µM): 0.698
relative viability (HCC-366; first compound 0.06325 µM): 0.0495
relative viability (HCC-366; first compound 0.2 µM): 0.0391
relative viability (HCC-44; first compound 0.002 µM): 0.484
relative viability (HCC-44; first compound 0.006325 µM): 0.554
relative viability (HCC-44; first compound 0.02 µM): 0.483
relative viability (HCC-44; first compound 0.06325 µM): 0.135
relative viability (HCC-44; first compound 0.2 µM): 0.139
relative viability (HCC-827; first compound 0.002 µM): 0.795
relative viability (HCC-827; first compound 0.006325 µM): 0.725
relative viability (HCC-827; first compound 0.02 µM): 0.543
relative viability (HCC-827; first compound 0.06325 µM): 0.354
relative viability (HCC-827; first compound 0.2 µM): 0.126
relative viability (LCLC-103H; first compound 0.002 µM): 0.457
relative viability (LCLC-103H; first compound 0.006325 µM): 0.471
relative viability (LCLC-103H; first compound 0.02 µM): 0.35
relative viability (LCLC-103H; first compound 0.06325 µM): 0.503
relative viability (LCLC-103H; first compound 0.2 µM): 0.383
relative viability (NCI-H1355; first compound 0.002 µM): 0.39
relative viability (NCI-H1355; first compound 0.006325 µM): 0.377
relative viability (NCI-H1355; first compound 0.02 µM): 0.277
relative viability (NCI-H1355; first compound 0.06325 µM): 0.163
relative viability (NCI-H1355; first compound 0.2 µM): 0.148
relative viability (NCI-H1734; first compound 0.002 µM): 0.538
relative viability (NCI-H1734; first compound 0.006325 µM): 0.555
relative viability (NCI-H1734; first compound 0.02 µM): 0.352
relative viability (NCI-H1734; first compound 0.06325 µM): 0.168
relative viability (NCI-H1734; first compound 0.2 µM): 0.156
relative viability (NCI-H1793; first compound 0.002 µM): 0.257
relative viability (NCI-H1793; first compound 0.006325 µM): 0.246
relative viability (NCI-H1793; first compound 0.02 µM): 0.199
relative viability (NCI-H1793; first compound 0.06325 µM): 0.125
relative viability (NCI-H1793; first compound 0.2 µM): 0.112
relative viability (NCI-H1944; first compound 0.002 µM): 0.422
relative viability (NCI-H1944; first compound 0.006325 µM): 0.359
relative viability (NCI-H1944; first compound 0.02 µM): 0.365
relative viability (NCI-H1944; first compound 0.06325 µM): 0.215
relative viability (NCI-H1944; first compound 0.2 µM): 0.152
relative viability (NCI-H2009; first compound 0.002 µM): 0.773
relative viability (NCI-H2009; first compound 0.006325 µM): 0.534
relative viability (NCI-H2009; first compound 0.02 µM): 0.518
relative viability (NCI-H2009; first compound 0.06325 µM): 0.0609
relative viability (NCI-H2009; first compound 0.2 µM): 0.0769
relative viability (NCI-H2023; first compound 0.002 µM): 0.44
relative viability (NCI-H2023; first compound 0.006325 µM): 0.374
relative viability (NCI-H2023; first compound 0.02 µM): 0.131
relative viability (NCI-H2023; first compound 0.06325 µM): 0.0545
relative viability (NCI-H2023; first compound 0.2 µM): 0.0624
relative viability (NCI-H2085; first compound 0.002 µM): 0.793
relative viability (NCI-H2085; first compound 0.006325 µM): 0.779
relative viability (NCI-H2085; first compound 0.02 µM): 0.395
relative viability (NCI-H2085; first compound 0.06325 µM): 0.242
relative viability (NCI-H2085; first compound 0.2 µM): 0.233
relative viability (NCI-H2228; first compound 0.002 µM): 0.576
relative viability (NCI-H2228; first compound 0.006325 µM): 0.459
relative viability (NCI-H2228; first compound 0.02 µM): 0.116
relative viability (NCI-H2228; first compound 0.06325 µM): 0.109
relative viability (NCI-H2228; first compound 0.2 µM): 0.0698
relative viability (NCI-H2347; first compound 0.002 µM): 0.414
relative viability (NCI-H2347; first compound 0.006325 µM): 0.355
relative viability (NCI-H2347; first compound 0.02 µM): 0.41
relative viability (NCI-H2347; first compound 0.06325 µM): 0.185
relative viability (NCI-H2347; first compound 0.2 µM): 0.227
relative viability (NCI-H2405; first compound 0.002 µM): 0.648
relative viability (NCI-H2405; first compound 0.006325 µM): 0.545
relative viability (NCI-H2405; first compound 0.02 µM): 0.532
relative viability (NCI-H2405; first compound 0.06325 µM): 0.196
relative viability (NCI-H2405; first compound 0.2 µM): 0.192
relative viability (NCI-H3122; first compound 0.002 µM): 1.01
relative viability (NCI-H3122; first compound 0.006325 µM): 0.787
relative viability (NCI-H3122; first compound 0.02 µM): 0.142
relative viability (NCI-H3122; first compound 0.06325 µM): 0.114
relative viability (NCI-H3122; first compound 0.2 µM): 0.105
relative viability (PC-14; first compound 0.002 µM): 0.918
relative viability (PC-14; first compound 0.006325 µM): 0.598
relative viability (PC-14; first compound 0.02 µM): 0.11
relative viability (PC-14; first compound 0.06325 µM): 0.0462
relative viability (PC-14; first compound 0.2 µM): 0.0587
relative viability (SW 1573; first compound 0.002 µM): 0.633
relative viability (SW 1573; first compound 0.006325 µM): 0.549
relative viability (SW 1573; first compound 0.02 µM): 0.199
relative viability (SW 1573; first compound 0.06325 µM): 0.0962
relative viability (SW 1573; first compound 0.2 µM): 0.09
